In ChEMBL document CHEMBL3044899, “Effect of chloro and fluoro groups on the antimicrobial activity of 2,5-disubstituted 4-thiazolidinones: a comparative study” (2012):
Calls of active or inactive are those of the source. The calls are words filed in the database; no cut-off is given here.

How the values were obtained:
[1] = test system: Escherichia coli; assay: Antibacterial activity against Escherichia coli MTCC 739 at 100 ug/ml by cup-plate method; type: functional; settings: read-out: DIZ
[2] = test system: Escherichia coli; assay: Antibacterial activity against Escherichia coli MTCC 739 at 50 ug/ml by cup-plate method; type: functional; settings: read-out: DIZ
[3] = test system: Pseudomonas aeruginosa; assay: Antibacterial activity against Pseudomonas aeruginosa MTCC 2453 at 300 ug/ml by cup-plate method; type: functional; settings: read-out: DIZ
[4] = test system: Pseudomonas aeruginosa; assay: Antibacterial activity against Pseudomonas aeruginosa MTCC 2453 at 100 ug/ml by cup-plate method; type: functional; settings: read-out: DIZ
[5] = test system: Pseudomonas aeruginosa; assay: Antibacterial activity against Pseudomonas aeruginosa MTCC 2453 at 200 ug/ml by cup-plate method; type: functional; settings: read-out: DIZ
[6] = test system: Pseudomonas aeruginosa; assay: Antibacterial activity against Pseudomonas aeruginosa MTCC 2453 at 50 ug/ml by cup-plate method; type: functional; settings: read-out: DIZ
[7] = test system: Bacillus subtilis; assay: Antibacterial activity against Bacillus subtilis MTCC 121 at 300 ug/ml by cup plate method; type: functional; settings: read-out: DIZ
[8] = test system: Bacillus subtilis; assay: Antibacterial activity against Bacillus subtilis MTCC 121 at 200 ug/ml by cup plate method; type: functional; settings: read-out: DIZ
[9] = test system: Bacillus subtilis; assay: Antibacterial activity against Bacillus subtilis MTCC 121 at 50 ug/ml by cup plate method; type: functional; settings: read-out: DIZ
[10] = test system: Bacillus subtilis; assay: Antibacterial activity against Bacillus subtilis MTCC 121 at 100 ug/ml by cup plate method; type: functional; settings: read-out: DIZ
[11] = test system: Staphylococcus aureus; assay: Antibacterial activity against Staphylococcus aureus MTCC 96 at 300 ug/ml by cup-plate method; type: functional; settings: read-out: DIZ
[12] = test system: Staphylococcus aureus; assay: Antibacterial activity against Staphylococcus aureus MTCC 96 at 200 ug/ml by cup-plate method; type: functional; settings: read-out: DIZ
[13] = test system: Staphylococcus aureus; assay: Antibacterial activity against Staphylococcus aureus MTCC 96 at 100 ug/ml by cup-plate method; type: functional; settings: read-out: DIZ
[14] = test system: Staphylococcus aureus; assay: Antibacterial activity against Staphylococcus aureus MTCC 96 at 50 ug/ml by cup-plate method; type: functional; settings: read-out: DIZ
[15] = test system: Escherichia coli; assay: Antibacterial activity against Escherichia coli MTCC 739 by cup-plate method; type: functional, organism-based
[16] = test system: Pseudomonas aeruginosa; assay: Antibacterial activity against Pseudomonas aeruginosa MTCC 2453 by cup-plate method; type: functional, organism-based
[17] = test system: Bacillus subtilis; assay: Antibacterial activity against Bacillus subtilis MTCC 121 by cup plate method; type: functional, organism-based
[18] = test system: Staphylococcus aureus; assay: Antibacterial activity against Staphylococcus aureus MTCC 96 by cup-plate method; type: functional, organism-based
[19] = test system: Candida albicans; assay: Antifungal activity against Candida albicans MTCC 227 at 50 to 300 ug/ml by cup-plate method; type: functional, organism-based
[20] = test system: Escherichia coli; assay: Antibacterial activity against Escherichia coli MTCC 739 at 300 ug/ml by cup-plate method; type: functional; settings: read-out: DIZ
[21] = test system: Escherichia coli; assay: Antibacterial activity against Escherichia coli MTCC 739 at 200 ug/ml by cup-plate method; type: functional; settings: read-out: DIZ

| SMILES | zone of inhibition at 100 µg/mL [1] [mm] | zone of inhibition at 50 µg/mL [2] [mm] | zone of inhibition at 300 µg/mL [3] [mm] | zone of inhibition at 100 µg/mL [4] [mm] | zone of inhibition at 200 µg/mL [5] [mm] | zone of inhibition at 50 µg/mL [6] [mm] | zone of inhibition at 300 µg/mL [7] [mm] | zone of inhibition at 200 µg/mL [8] [mm] | zone of inhibition at 50 µg/mL [9] [mm] | zone of inhibition at 100 µg/mL [10] [mm] | zone of inhibition at 300 µg/mL [11] [mm] | zone of inhibition at 200 µg/mL [12] [mm] | zone of inhibition at 100 µg/mL [13] [mm] | zone of inhibition at 50 µg/mL [14] [mm] | Activity [15] | Activity [16] | Activity [17] | Activity [18] | Activity [19] | zone of inhibition at 300 µg/mL [20] [mm] | further results |
| --- | --- | --- | --- | --- | --- | --- | --- | --- | --- | --- | --- | --- | --- | --- | --- | --- | --- | --- | --- | --- | --- |
| O=C1N/C(=N\c2cccc(Cl)c2)S/C1=C\c1cccc([N+](=O)[O-])c1 | 7 | 7 | 9 | 8 | 9 | 8 | 10 | 9 | 8 | 9 | 10 | 9 | 9 | 8 | Dose-dependent effect | Dose-dependent effect | Dose-dependent effect | Dose-dependent effect | inactive | 8 | zone of inhibition at 200 µg/mL [21]: 8 mm |
| O=C1N/C(=N\c2cccc(Cl)c2)S/C1=C\c1ccccc1[N+](=O)[O-] | 8 | 6 | 9 | 8 | 9 | 7 | 10 | 9 | 9 | 9 | 10 | 10 | 9 | 8 | Dose-dependent effect | Dose-dependent effect | Dose-dependent effect | Dose-dependent effect | inactive | 9 | zone of inhibition at 200 µg/mL [21]: 9 mm |
| O=C1N/C(=N\c2ccc(Cl)cc2)S/C1=C\c1ccccc1 | 8 | 7 | 11 | 8 | 8 | 8 | 10 | 9 | 5 | 8 | 10 | 9 | 8 | 5 | Dose-dependent effect | Dose-dependent effect | Dose-dependent effect | Dose-dependent effect | inactive | 12 | zone of inhibition at 200 µg/mL [21]: 10 mm |
